Results from PubChem BioAssay (NCI).
“And” between values parts separate entries of the source, which are not always exact repeats. Equal values may be shown once.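 Five concentrations, 48 hours, 96-well plates. GI50 = concentration required for 50% inhibition of growth. TGI marks complete inhibition of growth.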

Key:
Assay in all cases: DTP human tumour cell line panel, 48 h
[1] = system: HT29 colon
[2] = system: MCF7 breast
[3] = system: OVCAR-8 ovarian
[4] = system: SR leukemia
[5] = system: SNB-75 CNS
[6] = system: SK-OV-3 ovarian
[7] = system: EKVX NSCLC
[8] = system: UACC-62 melanoma
[9] = system: LOX IMVI melanoma
[10] = system: HS 578T breast

SMILES	TGI [1]	TGI [2]	TGI [3]	TGI [4]	TGI [5]	TGI [6]	TGI [7]	TGI [8]	TGI [9]	TGI [10]	GI50 [2]	GI50 [3]	GI50 [4]	GI50 [5]	GI50 [6]	GI50 [7]	GI50 [8]	GI50 [9]	GI50 [10]	GI50 [1]
N#C/C(=C\Nc1ccccn1)C(=O)c1ccco1	> 100 µM	> 100 µM	> 100 µM	> 100 µM	> 100 µM	> 100 µM	> 100 µM	> 100 µM	> 100000 nM	> 100 µM	–	–	–	–	–	–	–	–	–	–
CC1(C)N=C(N)N=C(N)N1c1ccc(CCc2ccc(Cl)cc2S(=O)(=O)F)c(Cl)c1	–	18.9 µM	69.1 µM	76.5 µM	27.3 µM	> 100 µM	> 100 µM	31.5 µM	20600 nM	41.3 µM	3640 nM	7.2 µM	6050 nM	8440 nM	19.1 µM	11300 nM	4570 nM	4040 nM	11.1 µM	–
O=C(/C=C/c1cccc([N+](=O)[O-])c1)c1ccc(O)c(CN2CCN(c3cc4c(cc3F)c(=O)c(C(=O)O)cn4C3CC3)CC2)c1	6.25 µM	1.44 µM	8.77 µM	53.2 µM	2.51 µM	> 100 µM	3.32 µM	3.45 µM	1410 nM	7.11 µM	332 nM	2.52 µM	398 nM	1220 nM	5 µM	1710 nM	1660 nM	364 nM	2.43 µM	2440 nM
Cc1cccc(Cl)c1NC(=O)c1cnc(Nc2cc(N3CCOCC3)cc(N3CCOCC3)c2)s1	0.19 µM	> 10 µM	> 10 µM	> 10 µM	0.0176 µM	1.6 µM	> 10 µM	> 10 µM	83 nM	0.157 µM	> 4470 nM	0.0842 µM	–	1.47 nM	0.0178 µM	213 nM	1700 nM	12 nM	0.0151 µM	18.1 nM
CCN(CC)CCCC(C)Nc1c2ccc(Cl)cc2nc2cc(OC)c(OC)cc12 (stereo not given)	10.3 µM	2.9 µM	10.3 µM	13.6 µM	2.6 µM	8.87 µM	5.06 µM	4.69 µM	2640 nM	10.1 µM	656 nM	2.28 µM	1270 nM	1310 nM	2.65 µM	1780 nM	2140 nM	1230 nM	2.75 µM	1540 nM
COc1cc2c(cc1OC)-c1ccc3cc4c(cc3c1N(CCN(C)C)C2)OCO4	1.64 µM	5.98 µM	3.44 µM	2.63 µM	6 µM	3.2 µM	13.7 µM	5.4 µM	1320 nM	13.7 µM	122 nM	0.51 µM	52.4 nM	350 nM	0.518 µM	1330 nM	403 nM	271 nM	1.68 µM	265 nM
c1ccc(Nn2c(CCCCCCCCc3nnc(COc4ccccc4)n3Nc3ccccc3)nnc2COc2ccccc2)cc1	> 300 µM	> 300 µM	> 300 µM	> 300 µM	> 300 µM	> 300 µM	–	> 40.8 µM and 68 µM	> 300000 nM	> 300 µM	18300 nM	40 µM and 23.9 µM	8480 nM and 7330 nM	48800 nM and 49200 nM	> 300 µM	–	1280 nM	5350 nM and 4040 nM	35.5 µM	41900 nM
CCCCOC(=O)c1ccc(NC(=O)CCl)cc1	3.48 µM	10 µM	4.73 µM	3.85 µM	5.96 µM	22.6 µM	7.13 µM	13.3 µM	2350 nM	57.3 µM	2350 nM	2.29 µM	1670 nM	1860 nM	10.5 µM	2370 nM	2740 nM	1030 nM	9.16 µM	1900 nM
Clc1ccc(C(c2ccc(Cl)cc2)N2CCNCC2)cc1	4.51 µM	3.86 µM	3.28 µM	4.41 µM	5.78 µM	> 44.3 µM	10.4 µM	3.55 µM	4530 nM	7.89 µM	–	–	–	–	–	–	–	–	–	–
CN1C(=O)C(=Cc2cn(Cc3ccccc3)c3ccccc23)C(=O)N(C)C1=O	> 100 µM	> 100 µM	> 82.6 µM	> 100 µM	> 100 µM	> 100 µM	> 100 µM	> 35.3 µM	> 100000 nM	> 81.5 µM	21400 nM	35.8 µM	43100 nM	34200 nM	6.16 µM	35800 nM	1870 nM	35300 nM	17.8 µM	> 78800 nM
CC(=O)OCc1ccc(O)c(C=O)c1	> 100 µM	> 100 µM	> 100 µM	> 100 µM	> 100 µM	> 100 µM	> 100 µM	> 100 µM	> 100000 nM	> 100 µM	–	–	–	–	–	–	–	–	–	–
COc1cc2c(cc1OC)C(CC1(O)CCCCC1)N(S(=O)(=O)c1ccc(C)cc1)CC2 (stereo not given)	> 10 µM	> 10 µM	> 10 µM	> 10 µM	> 10 µM	> 10 µM	–	> 10 µM	> 10000 nM	> 10 µM	> 10000 nM	> 10 µM	> 10000 nM	> 10000 nM	> 10 µM	–	> 10000 nM	> 10000 nM	> 10 µM	> 10000 nM
O=C1c2cc(-c3ccccc3)ccc2-c2c1c1ccc([N+](=O)[O-])cc1c(=O)n2CCCBr	> 50 µM	> 50 µM	> 50 µM	> 15.1 µM	> 26.2 µM	> 50 µM	> 50 µM	> 50 µM	> 50000 nM	> 40.7 µM	> 46400 nM	> 50 µM	–	15100 nM	33.1 µM	> 50000 nM	49400 nM	> 50000 nM	10.5 µM	> 50000 nM
COc1ccc2c(c1)c1nc3cc(C)c(C)cc3nc1n2CCN(C)C	1.94 µM	1.42 µM	–	4.81 µM	4.14 µM	3.48 µM	2.85 µM	2.48 µM	1600 nM	6.23 µM	333 nM	–	428 nM	1290 nM	1.5 µM	1160 nM	884 nM	375 nM	1.77 µM	529 nM
